Reference: article PMC9292294 (Chemmedchem, 2021)

How the values were obtained:
[1] = target: FXIIa (Homo sapiens, UniProt P00748); experiment: Medium‐throughput screening; type: biochemical; details: read-out: Inhibition @100 nM [in MTS] FXIIa
[2] = target: porcine trypsin (Sus scrofa, UniProt P00761); experiment: Trypsin inhibition assay, fluorogenic substrate Z‐Gly‐Gly‐Arg‐AMC; type: biochemical; details: for inhibition at 5 µM: read-out: Trypsin inhibition % at 5 μM
[3] = target: thrombin (FIIa) (Homo sapiens, UniProt P00734); experiment: Medium‐throughput screening; type: biochemical; details: read-out: Inhibition @100 nM [in MTS] FIIa
[4] = target: human β‐FXIIa (Homo sapiens, UniProt P00748); type: biochemical
[5] = target: human Factor Xa (Homo sapiens, UniProt P00742); experiment: FXa inhibition assay, fluorogenic substrate Boc‐Ile‐Glu‐Gly‐Arg‐AMC; type: biochemical
[6] = target: human α‐thrombin (factor IIa) (Homo sapiens, UniProt P00734); type: biochemical
[7] = system: human pooled plasma; experiment: In vitro plasma coagulation assay, activated partial thromboplastin time; details: 200 μM, fold increase compared to DMSO
[8] = target: human plasma β‐FXIIa (Homo sapiens, UniProt P00748); experiment: Mass‐shift analysis of the covalent FXIIa‐inhibitor complex by SEC/ESI‐MS; type: binding; details: 15 min incubation, enzyme:inhibitor 1 : 20
human plasma β‐FXIIa, sequence (P00748 373-615 limits assumed, other chains not shown): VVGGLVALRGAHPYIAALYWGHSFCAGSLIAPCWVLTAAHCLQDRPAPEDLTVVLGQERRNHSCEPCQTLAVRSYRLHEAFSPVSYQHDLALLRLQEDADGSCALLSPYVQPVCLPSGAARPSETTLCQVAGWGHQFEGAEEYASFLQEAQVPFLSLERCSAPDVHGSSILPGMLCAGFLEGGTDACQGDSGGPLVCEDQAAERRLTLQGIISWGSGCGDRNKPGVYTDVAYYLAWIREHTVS

porcine trypsin, sequence (P00761 9-231): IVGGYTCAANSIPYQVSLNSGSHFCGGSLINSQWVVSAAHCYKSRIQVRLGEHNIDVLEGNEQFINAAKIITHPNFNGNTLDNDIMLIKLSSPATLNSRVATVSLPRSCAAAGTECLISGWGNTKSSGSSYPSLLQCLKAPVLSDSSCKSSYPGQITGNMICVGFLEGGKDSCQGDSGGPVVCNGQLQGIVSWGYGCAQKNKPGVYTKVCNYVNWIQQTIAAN
human Factor Xa, sequence (P00742 235-488 limits assumed): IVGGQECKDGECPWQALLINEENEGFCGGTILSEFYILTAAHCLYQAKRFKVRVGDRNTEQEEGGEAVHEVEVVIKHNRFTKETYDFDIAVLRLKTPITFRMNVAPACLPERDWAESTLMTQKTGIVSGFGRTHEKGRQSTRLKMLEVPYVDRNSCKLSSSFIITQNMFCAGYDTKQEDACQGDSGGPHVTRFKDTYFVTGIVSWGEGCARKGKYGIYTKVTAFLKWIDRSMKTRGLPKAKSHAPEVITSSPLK
human Factor Xa, sequence (P00742 41-179 limits assumed): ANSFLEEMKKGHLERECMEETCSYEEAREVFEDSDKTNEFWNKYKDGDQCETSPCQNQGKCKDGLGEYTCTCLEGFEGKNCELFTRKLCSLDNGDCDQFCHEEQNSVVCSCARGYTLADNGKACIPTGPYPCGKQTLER
human β‐FXIIa, sequence (P00748 373-615 limits assumed, other chains not shown): as the sequence (P00748 373-615 limits assumed, other chains not shown) above
FXIIa, sequence (P00748 373-615 limits assumed, other chains not shown): as above

| Structure (SMILES) | inhibition at 0.1 µM [1] [%] | IC50 [2] [µM] | inhibition at 0.1 µM [3] [%] | IC50 [4] [µM] | IC50 [5] [µM] | IC50 [6] [µM] | aPTT, fold [7] [fold] | mass shift of FXIIa (acyl moiety adduct) [8] [Da] | inhibition at 5 µM [2] [%] | fold improved FXIIa inhibitory activity ([4]; versus parent 33 h (122 nM vs. 33 nM)) [fold] | inhibition at 1 µM ([5]; read-out: FXa inhibition % at 1 μM) [%] |
| --- | --- | --- | --- | --- | --- | --- | --- | --- | --- | --- | --- |
| Nc1nc(-c2ccccn2)nn1C(=O)Cc1ccccc1I [32 a, 1‐(5‐Amino‐3‐(pyridin‐2‐yl)‐1H‐1,2,4‐triazol‐1‐yl)‐2‐(2‐iodophenyl)ethan‐1‐one] | 54 | > 5 | 2 |  |  |  |  |  |  |  |  |
| Cc1cccc(-c2nc(N)n(C(=O)Cc3ccccc3I)n2)n1 [32 b, 1‐(5‐Amino‐3‐(6‐methylpyridin‐2‐yl)‐1H‐1,2,4‐triazol‐1‐yl)‐2‐(2‐iodophenyl)ethan‐1‐one] | 54 | > 5 | 0 | 0.073 ± 0.022 | > 5 | > 5 |  |  |  |  |  |
| Nc1nc(-c2cnccn2)nn1C(=O)Cc1ccccc1I [32 c, 1‐(5‐Amino‐3‐(pyrazin‐2‐yl)‐1H‐1,2,4‐triazol‐1‐yl)‐2‐(2‐iodophenyl)ethan‐1‐one] | 75 | > 5 | 15 | 0.065 ± 0.009 | > 5 | 1.69 ± 0.167 |  |  |  |  |  |
| Cc1nc(-c2cccs2)ccc1-c1nc(N)n(C(=O)Cc2ccccc2I)n1 [32 d, 1‐(5‐Amino‐3‐(2‐methyl‐6‐(thiophen‐2‐yl)pyridin‐3‐yl)‐1H‐1,2,4‐triazol‐1‐yl)‐2‐(2‐iodophenyl)‐ethan‐1‐one] | 8 | > 5 | 0 | 0.716 ± 0.082 | > 5 | > 5 |  |  |  |  |  |
| CC(C)(C)c1nc(N)n(C(=O)Cc2ccccc2I)n1 [32 e, 1‐(5‐Amino‐3‐(tert‐butyl)‐1H‐1,2,4‐triazol‐1‐yl)‐2‐(2‐iodophenyl)ethan‐1‐one] | 3 | > 5 | 1 | > 5 | > 5 | > 5 |  |  |  |  |  |
| Nc1nc(-c2ccccn2)nn1C(=O)[C@H]1CCCc2ccccc21 [33 a, (S)‐(5‐Amino‐3‐(pyridin‐2‐yl)‐1H‐1,2,4‐triazol‐1‐yl)(1,2,3,4‐tetrahydro‐naphthalen‐1‐yl)‐methanone] | 73 | > 5 | 10 |  |  |  |  |  |  |  |  |
| Cc1cccc(-c2nc(N)n(C(=O)[C@H]3CCCc4ccccc43)n2)n1 [33 b, (S)‐(5‐Amino‐3‐(6‐methylpyridin‐2‐yl)‐1H‐1,2,4‐triazol‐1‐yl)(1,2,3,4‐tetrahydronaphthalen‐1‐yl)‐methanone] | 36 | > 5 | 5 | 0.214 ± 0.035 | > 5 | 0.819 ± 0.015 |  |  |  |  |  |
| Nc1nc(-c2cnccn2)nn1C(=O)[C@H]1CCCc2ccccc21 [33 c, (S)‐(5‐Amino‐3‐(pyrazin‐2‐yl)‐1H‐1,2,4‐triazol‐1‐yl)(1,2,3,4‐tetrahydronaphthalen‐1‐yl)methanone] | 80 | > 5 | 36 | 0.106 ± 0.013 | > 5 | 0.143 ± 0.005 | 2.7 |  |  |  |  |
| Cc1nc(-c2cccs2)ccc1-c1nc(N)n(C(=O)[C@H]2CCCc3ccccc32)n1 [33 d, (S)‐(5‐Amino‐3‐(2‐methyl‐6‐(thiophen‐2‐yl)pyridin‐3‐yl)‐1H‐1,2,4‐triazol‐1‐yl)(1,2,3,4‐tetrahydro‐naphthalen‐1‐yl)methanone] | 26 | > 5 | 0 | 1.14 ± 0.334 | > 5 | > 5 |  |  |  |  |  |
| CC(C)(C)c1nc(N)n(C(=O)[C@H]2CCCc3ccccc32)n1 [33 e, (S)‐(5‐Amino‐3‐(tert‐butyl)‐1H‐1,2,4‐triazol‐1‐yl)(1,2,3,4‐tetrahydronaphthalen‐1‐yl)methanone] | 0 | > 5 | 1 | > 5 | > 5 | > 5 |  |  |  |  |  |
| Nc1nc(-c2ccc(F)cc2)nn1C(=O)[C@H]1CCCc2ccccc21 [33 f, (S)‐(5‐Amino‐3‐(4‐fluorophenyl)‐1H‐1,2,4‐triazol‐1‐yl)(1,2,3,4‐tetrahydronaphthalen‐1‐yl)‐methanone] | 29 | > 5 | 0 | ~2 | > 5 | > 5 |  |  |  |  |  |
| Nc1nc(-c2ccc3ccccc3n2)nn1C(=O)[C@H]1CCCc2ccccc21 [33 g, (S)‐(5‐Amino‐3‐(quinolin‐2‐yl)‐1H‐1,2,4‐triazol‐1‐yl)(1,2,3,4‐tetrahydronaphthalen‐1‐yl)‐methanone] | 94 | > 5 | 5 | 0.033 ± 0.001 | > 5 | 1.01 ± 0.155 |  | 158.2 |  |  |  |
| Cc1nc2ccccc2nc1-c1nc(N)n(C(=O)[C@H]2CCCc3ccccc32)n1 [33 h, (S)‐(5‐Amino‐3‐(3‐methylquinoxalin‐2‐yl)‐1H‐1,2,4‐triazol‐1‐yl)(1,2,3,4‐tetrahydronaphthalen‐1‐yl)methanone] | 81 | > 5 | 0 | 0.122 ± 0.035 | > 5 | > 5 |  |  |  |  |  |
| Nc1nc(-c2nccc3ccccc23)nn1C(=O)[C@H]1CCCc2ccccc21 [33 i, (S)‐(5‐Amino‐3‐(isoquinolin‐1‐yl)‐1H‐1,2,4‐triazol‐1‐yl)(1,2,3,4‐tetrahydronaphthalen‐1‐yl)‐methanone] | 14 | > 5 | 62 | 0.547 ± 0.058 | > 5 | 0.038 ± 0.009 |  |  |  |  |  |
| Nc1nc(-c2ccccc2C(=O)N2CCCCC2)nn1C(=O)[C@H]1CCCc2ccccc21 [33 j, (S)‐(2‐(5‐Amino‐1‐(1,2,3,4‐tetrahydronaphthalene‐1‐carbonyl)‐1H‐1,2,4‐triazol‐3‐yl)phenyl)‐(piperidin‐1‐yl)methanone] | 8 | > 5 | 1 | 1.52 ± 0.182 | > 5 | 5.7 ± 0.33 |  |  |  |  |  |
| Nc1nc(-c2cnc3ccccc3n2)nn1C(=O)[C@H]1CCCc2ccccc21 [39 a, (S)‐(5‐Amino‐3‐(quinoxalin‐2‐yl)‐1H‐1,2,4‐triazol‐1‐yl)(1,2,3,4‐tetrahydronaphthalen‐1‐yl)‐methanone] |  |  |  | 0.033 ± 0.007 | > 5 | > 5 |  |  | 32 | 3.7 |  |
| Nc1nc(-c2cnc3ccccc3n2)nn1C(=O)c1cccc2ccccc12 [39 b, (5‐Amino‐3‐(quinoxalin‐2‐yl)‐1H‐1,2,4‐triazol‐1‐yl)(naphthalen‐1‐yl)methanone] |  | > 5 |  |  | > 5 | > 5 |  |  |  |  |  |
| Nc1nc(-c2ccc3ccccc3n2)nn1C(=O)c1ccccc1 [40 a, (5‐Amino‐3‐(quinoline‐2‐yl)‐1H‐1,2,4‐triazol‐1‐yl)(phenyl)methanone] |  | > 5 |  | 0.013 ± 0.002 | > 5 | 0.124 ± 0.01 |  |  |  |  |  |
| Nc1nc(-c2ccc3ccccc3n2)nn1C(=O)c1cccc2ccccc12 [40 b, (5‐Amino‐3‐(quinolin‐2‐yl)‐1H‐1,2,4‐triazol‐1‐yl)(naphthalen‐1‐yl)methanone] |  | > 5 |  | 0.008 ± 0.002 |  | 0.348 ± 0.015 |  |  |  |  |  |
| Nc1nc(-c2nccc3ccccc23)nn1C(=O)c1ccccc1 [41 a, (5‐Amino‐3‐(isoquinolin‐1‐yl)‐1H‐1,2,4‐triazol‐1‐yl)(phenyl)methanone] |  | > 5 |  | 0.236 ± 0.005 | > 5 | 0.063 ± 0.001 |  |  |  |  |  |
| Nc1nc(-c2nccc3ccccc23)nn1C(=O)c1ccc2ccccc2c1 [41 c, (5‐Amino‐3‐(isoquinolin‐1‐yl)‐1H‐1,2,4‐triazol‐1‐yl)(naphthalen‐2‐yl)methanone] |  | > 5 |  | > 5 | > 5 |  |  |  |  |  |  |
| [H]/N=C(/N)c1ccc(NCc2nc3cc(C(=O)N(CCC(=O)O)c4ccccn4)ccc3n2C)cc1 [Dabigatran, reference compound] | -1 |  | 91 | > 5 |  |  |  |  | 59 |  | 34 |
| O=C(NC[C@H]1CN(c2ccc(N3CCOCC3=O)cc2)C(=O)O1)c1ccc(Cl)s1 [Rivaroxaban, reference compound] | -1 | > 5 | 1 | > 5 |  |  |  |  |  |  |  |
